27 compounds from US9701689B2, “Substituted pyridines and pyridazines as CCR10 receptor inhibitors” (KYOWA HAKKO KIRIN CO., LTD., priority 2012, dated 2017) can be followed below.

This assay concerns the target T1, human CCR10 (Homo sapiens, UniProt P46092).
T1 construct: expressed in transfected cells; host or cells: KJMGER8 cells (Namalwa cell-derived line), beta-estradiol-induced; hCCR10G16 cells
T1 sequence (P46092 1-362): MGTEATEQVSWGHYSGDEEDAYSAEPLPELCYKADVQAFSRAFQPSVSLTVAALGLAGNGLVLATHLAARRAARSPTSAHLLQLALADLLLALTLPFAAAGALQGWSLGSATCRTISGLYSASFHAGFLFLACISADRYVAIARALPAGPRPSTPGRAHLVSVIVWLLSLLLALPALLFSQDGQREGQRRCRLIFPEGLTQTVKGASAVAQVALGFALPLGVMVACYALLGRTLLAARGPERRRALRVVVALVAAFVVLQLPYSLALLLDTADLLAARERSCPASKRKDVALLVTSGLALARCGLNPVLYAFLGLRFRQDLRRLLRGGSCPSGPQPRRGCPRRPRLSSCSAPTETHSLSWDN
The assay is described as follows: CCR10 antagonistic effect: calcium assay of human CCR10 (CTACK-induced increase of intracellular calcium in hCCR10G16 cells). The class given is cell-based. The note with it: at a concentration of not more than 1000 nmol/L; human CCR10-expressing hCCR10G16 cells, 300 nmol/L CTACK added; read-out: inhibition of increase in the calcium ion concentration. The method in brief: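 Inhibition of CTACK-evoked calcium flux (max minus min Fluo-3 fluorescence over ~5 min, FDSS) was calculated against control in β-estradiol-induced human CCR10/Gα16 KJMGER8 cells, after 30 min compound preincubation at 37 °C; CTACK added from a 300 nmol/L solution.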
In general terms: Calcium flux is commonly read through the fluorescence of an indicator in the cells.

Consider `Cc1ncc(Nc2c(C(=O)N3CCC(c4ccc(F)cc4)CC3)cnc(S(N)(=O)=O)c2Cl)c(C)n1` [Compound 219, 3-chloro-4-(2,4-dimethylpyrimidin-5-ylamino)-5-[4-(4-fluorophenyl)piperidine-1-carbonyl]pyridine-2-sulfonamide], for which the inhibition at up to 1 µM is ≥ 50%.

Take `Cc1c(S(N)(=O)=O)ncc(C(=O)N2CCC(c3ccc(F)cc3)CC2)c1NC(C)c1ccccc1` (stereo not drawn) [Compound 220, 5-[4-(4-fluorophenyl)piperidine-1-carbonyl]-3-methyl-4-(1-phenylethylamino)pyridine-2-sulfonamide]: the inhibition at up to 1 µM was ≥ 50%.

`Cc1c(S(N)(=O)=O)ncc(C(=O)N2CCC(c3ccc(F)cc3)CC2)c1NCc1cccnc1` [Compound 221, 5-[4-(4-fluorophenyl)piperidine-1-carbonyl]-3-methyl-4-(pyridin-3-ylmethylamino)pyridine-2-sulfonamide]: the inhibition at up to 1 µM was ≥ 50%.

Consider `Cc1c(S(=O)(=O)Nc2ccon2)ncc(C(=O)N2CCC(c3ccc(F)cc3)CC2)c1NCCc1ccccc1` [Compound 222, 5-[4-(4-fluorophenyl)piperidine-1-carbonyl]-N-(isoxazol-3-yl)-3-methyl-4-(phenethylamino)pyridine-2-sulfonamide], for which the inhibition at up to 1 µM was ≥ 50%.

For `Cc1c(S(=O)(=O)Nc2ccon2)ncc(C(=O)N2CCC(c3ccc(F)cc3)CC2)c1NCc1ccccn1` [Compound 223, 5-[4-(4-fluorophenyl)piperidine-1-carbonyl]-N-(isoxazol-3-yl)-3-methyl-4-(pyridin-2-ylmethylamino)pyridine-2-sulfonamide], the inhibition at up to 1 µM is ≥ 50%.

As to `Cc1c(S(=O)(=O)Nc2ccon2)ncc(C(=O)N2CCC(c3ccc(F)cc3)CC2)c1NCCN1CCOCC1` [Compound 224, 5-[4-(4-fluorophenyl)piperidine-1-carbonyl]-N-(isoxazol-3-yl)-3-methyl-4-(2-morpholinoethylamino)pyridine-2-sulfonamide], the inhibition at up to 1 µM was ≥ 50%.

In the case of `O=C(c1cnc(S(=O)(=O)Nc2ccon2)c(F)c1NCc1ccccc1)N1CCC(c2ccc(F)cc2)CC1` [Compound 225, 4-(benzylamino)-3-fluoro-5-[4-(4-fluorophenyl)piperidine-1-carbonyl]-N-(isoxazol-3-yl)pyridine-2-sulfonamide], the inhibition at up to 1 µM is ≥ 50%.

On to `CCNC(=O)NS(=O)(=O)c1ncc(C(=O)N2CCC(c3ccc(F)cc3)CC2)c(Nc2ccccc2C)c1C` [Compound 226, N-(ethylcarbamoyl)-5-[4-(4-fluorophenyl)piperidine-1-carbonyl]-3-methyl-4-(o-tolylamino)pyridine-2-sulfonamide], for which the inhibition at up to 1 µM was ≥ 50%.

Take `Cc1c(S(=O)(=O)Nc2ccon2)ncc(C(=O)N2CCC(c3ccc(F)cc3)CC2)c1NCC1CCC1` [Compound 227, 4-(cyclobutylmethylamino)-5-[4-(4-fluorophenyl)piperidine-1-carbonyl]-N-(isoxazol-3-yl)-3-methylpyridine-2-sulfonamide]: the inhibition at up to 1 µM is ≥ 50%.

With `Cc1c(S(N)(=O)=O)ncc(C(=O)N2CCC(c3ccc(F)cc3)CC2)c1NCc1cccc(C#N)c1` [Compound 228, 4-(3-cyanobenzylamino)-5-[4-(4-fluorophenyl)piperidine-1-carbonyl]-3-methylpyridine-2-sulfonamide], the inhibition at up to 1 µM is ≥ 50%.

In the case of `Cc1cc(F)ccc1Nc1cc(S(N)(=O)=O)nnc1C(=O)N1CCC(c2ccc(F)cc2)CC1` [Compound 229, 5-(4-fluoro-2-methylphenylamino)-6-[4-(4-fluorophenyl)piperidine-1-carbonyl]pyridazine-3-sulfonamide], the inhibition at up to 1 µM is ≥ 50%.

On to `NS(=O)(=O)c1ncc(C(=O)N2CCC(c3ccc(F)cc3)CC2)c(NC2(c3ccccc3)CC2)c1Cl` [Compound 230, 3-chloro-5-[4-(4-fluorophenyl)piperidine-1-carbonyl]-4-(1-phenylcyclopropylamino)pyridine-2-sulfonamide], for which the inhibition at up to 1 µM was ≥ 50%.

Regarding `NS(=O)(=O)c1ncc(C(=O)N2CCC(c3ccc(F)cc3)CC2)c(NCc2cccs2)c1Cl` [Compound 231, 3-chloro-5-[4-(4-fluorophenyl)piperidine-1-carbonyl]-4-(thiophen-2-ylmethylamino)pyridine-2-sulfonamide], the inhibition at up to 1 µM is ≥ 50%.

As to `COc1ccc(Nc2c(C(=O)N3CCC(c4ccc(F)cc4)CC3)cnc(S(=O)(=O)Nc3ccon3)c2C)c(C)c1` [Compound 234, 5-[4-(4-fluorophenyl)piperidine-1-carbonyl]-N-(isoxazol-3-yl)-4-(4-methoxy-2-methylphenylamino)-3-methylpyridine-2-sulfonamide], the inhibition at up to 1 µM was ≥ 50%.

On to `Cc1ccc(Nc2c(C(=O)N3CCC(c4ccc(F)cc4)CC3)cnc(S(=O)(=O)Nc3ccon3)c2C)c(F)c1` [Compound 235, 4-(2-fluoro-4-methylphenylamino)-5-[4-(4-fluorophenyl)piperidine-1-carbonyl]-N-(isoxazol-3-yl)-3-methylpyridine-2-sulfonamide], for which the inhibition at up to 1 µM is ≥ 50%.

As to `NS(=O)(=O)c1ncc(C(=O)N2CCC(c3ccc(F)cc3)CC2)c(N[C@H]2C[C@H]3CC[C@@H]2C3)c1Cl` [Compound 236, 4-((1R,2S,4S)-bicyclo[2.2.1]heptan-2-ylamino)-3-chloro-5-[4-(4-fluorophenyl)piperidine-1-carbonyl]pyridine-2-sulfonamide], the inhibition at up to 1 µM is ≥ 50%.

`NS(=O)(=O)c1ncc(C(=O)N2CCC(c3ccc(F)cc3)CC2)c(NC2CCc3ccccc32)c1Cl` (stereo not drawn) [Compound 237, 3-chloro-4-(2,3-dihydro-1H-inden-1-ylamino)-5-[4-(4-fluorophenyl)piperidine-1-carbonyl]pyridine-2-sulfonamide]: the inhibition at up to 1 µM is ≥ 50%.

As for `NS(=O)(=O)c1ncc(C(=O)N2CCC(c3ccc(F)cc3)CC2)c(Oc2cccc(F)c2)c1Cl` [Compound 238, 3-chloro-4-(3-fluorophenoxy)-5-[4-(4-fluorophenyl)piperidine-1-carbonyl]pyridine-2-sulfonamide], the inhibition at up to 1 µM is ≥ 50%.

Consider `CCc1ccccc1Nc1c(C(=O)N2CCC(c3ccc(F)cc3)CC2)cnc(S(=O)(=O)Nc2ccon2)c1C` [Compound 239, 4-(2-ethylphenylamino)-5-[4-(4-fluorophenyl)piperidine-1-carbonyl]-N-(isoxazol-3-yl)-3-methylpyridine-2-sulfonamide], for which the inhibition at up to 1 µM is ≥ 50%.

In the case of `Cc1cc(F)ccc1Nc1c(C(=O)N2CCC(c3ccc(F)cc3)CC2)nnc(S(N)(=O)=O)c1Cl` [Compound 240, 4-chloro-5-(4-fluoro-2-methylphenylamino)-6-[4-(4-fluorophenyl)piperidine-1-carbonyl]pyridazine-3-sulfonamide], the inhibition at up to 1 µM is ≥ 50%.

With `Cn1ncc2cc(Nc3c(C(=O)N4CCC(c5ccc(F)cc5)CC4)cnc(S(N)(=O)=O)c3Cl)ccc21` [Compound 242, 3-chloro-5-[4-(4-fluorophenyl)piperidine-1-carbonyl]-4-(1-methyl-1H-indazol-5-ylamino)pyridine-2-sulfonamide], the inhibition at up to 1 µM was ≥ 50%.

As to `NS(=O)(=O)c1ncc(C(=O)N2CCC(c3ccc(F)cc3)CC2)c(Nc2ccc3c(c2)CCC3=O)c1Cl` [Compound 243, 3-chloro-5-[4-(4-fluorophenyl)piperidine-1-carbonyl]-4-(1-oxo-2,3-dihydro-1H-inden-5-ylamino)pyridine-2-sulfonamide], the inhibition at up to 1 µM is ≥ 50%.

`Cc1c(S(=O)(=O)Nc2ccon2)ncc(C(=O)N2CCC(c3ccc(F)cc3)CC2)c1Nc1cccc(Cl)c1` [Compound 244, 4-(3-chlorophenylamino)-5-[4-(4-fluorophenyl)piperidine-1-carbonyl]-N-(isoxazol-3-yl)-3-methylpyridine-2-sulfonamide]: the inhibition at up to 1 µM is ≥ 50%.

Turning to `Cc1nc(C(F)(F)F)ccc1Nc1c(C(=O)N2CCC(c3ccc(F)cc3)CC2)cnc(S(N)(=O)=O)c1C` [Compound 245, 5-[4-(4-fluorophenyl)piperidine-1-carbonyl]-3-methyl-4-[2-methyl-6-(trifluoromethyl)pyridin-3-ylamino]pyridine-2-sulfonamide], the inhibition at up to 1 µM was ≥ 50%.

Take `Cc1c(S(=O)(=O)Nc2ccon2)ncc(C(=O)N2CCC(c3ccc(F)cc3)CC2)c1Nc1cc(F)c(F)cc1F` [Compound 246, 5-[4-(4-fluorophenyl)piperidine-1-carbonyl]-N-(isoxazol-3-yl)-3-methyl-4-(2,4,5-trifluorophenylamino)pyridine-2-sulfonamide]: the inhibition at up to 1 µM was ≥ 50%.

As to `Cc1c(S(=O)(=O)Nc2ccon2)ncc(C(=O)N2CCC(c3ccc(F)cc3)CC2)c1Nc1ccc2c(c1)COC2` [Compound 247, 4-(1,3-dihydroisobenzofuran-5-ylamino)-5-[4-(4-fluorophenyl)piperidine-1-carbonyl]-N-(isoxazol-3-yl)-3-methylpyridine-2-sulfonamide], the inhibition at up to 1 µM is ≥ 50%.

With `Cc1ncc(Cl)cc1Nc1c(C(=O)N2CCC(c3ccc(F)cc3)CC2)cnc(S(=O)(=O)Nc2ccon2)c1C` [Compound 248, 4-(5-chloro-2-methylpyridin-3-ylamino)-5-[4-(4-fluorophenyl)piperidine-1-carbonyl]-N-(isoxazol-3-yl)-3-methylpyridine-2-sulfonamide], the inhibition at up to 1 µM was ≥ 50%.
